Source: US20040043939A1, “Peptide-based gemini compounds” (SmithKline Beecham p.l.c., priority 1997, published 2004)
Numbered stars: 1 amine (or outer) side, 2 acyl side, 3 side chain; on linkers, the order of the positions; unused ones are H or OH. Bridge positions count the residues as written; N and C are the ends. Peptide text beside a SMILES is read from it. I, II: the chains in the order shown. * marks the point of attachment. NH(CH2)11CH3 = CCCCCCCCCCCCN*; CH2CH2 = C(C[*:2])[*:1]

Legend:
Format in all cases: cell-based
HEK293 cells = assay: Transfection of luciferase plasmid into HEK293 cells, luciferase activity assay; conditions: for Efficiency in facilitating transfection of the luciferase plasmid: at concentrations above 150 ug/ml; for Luciferase activity, mean count at most effective (peak) concentration: luciferase control plasmid 6 ug, mean of 4 independent counts; for Concentration of peak transfection efficiency (most effective concentration): luciferase plasmid
Protocol: All tissue culture reagents were obtained from Life Technologies Inc. HEK 293 cells were seeded at 2-3×10^5 cells per well in Nunc six-well culture plates, 24 hours prior to transfection. The cells were seeded in 2 mls Dulbeccos Modified Eagle medium containing Earles salts and supplemented with 10% v/v foetal bovine serum (=complete medium). The cells were grown at 37° C. in 5% CO2 in a humidified atmosphere. 6 ug DNA (“luciferase control plasmid” from Promega Corp.) were dissolved in 100 ul serum free medium (OPTI-MEMO). The peptide-based gemini compounds were made up at 1 mg/ml in tissue culture grade water and then diluted in OPTI-MEM® to the appropriate concentration to a final volume of 100 ul. The DNA and gemini solutions were mixed (to a total volume of 200 ul; final concentrations of 5, 25, 50, 100, 150, 200, 250 and 300 ug/ml) and left at room temperature for 15 minutes. The DNA/gemini mix was placed onto the cells in each well and left in contact for 18-20 hours. The cells were then washed twice with phophate buffered saline prior to 1 ml of fresh complete medium being added. Cells were incubated for a further 24 hours prior to lysis and luciferase activity assayed.
All luciferase activity assays were performed using the Canberra Packard (Berkshire, UK) Luclite kit according to the manufacturer's instructions with the exception that the cells in each well were resuspended in 1 ml lysis buffer and 100 ul aliquots mixed with 100 ul of the luciferase substrate. The reaction mix was left for a 15 minutes adaptation period in the dark before counting for 5 minutes in a Top Count scintillation counter. Luciferase activity is measured as counts per second (CPS) from the scintillation counter. Four independent counts were taken per well.
Control transfections were set up with no DNA, CaPO4, an anionic gemini compound (1) and the commercially available lipofection reagents LipofectAmine™ and Lipotaxi™ at the manufacturers recommended concentrations (10, 25, 50, 75, 125 ug/ml and 175, 250, 325, 400 and 500 ug/ml respectively).

CHO-K1 cells [1] = assay: Transfection of luciferase plasmid into CHO-K1 cells, luciferase reporter gene assay; conditions: for Luciferase activity, mean count at most effective (peak) concentration: 5 ug luciferase plasmid, about 48 h post transfection; for Concentration of peak transfection efficiency (most effective concentration): luciferase plasmid
Protocol: CHO-K1 cells (ATCC: CRL-9618) were seeded into T25-culture flasks (Corning-Costar Buckinghamshire, UK), at 7×10^5 cells per flask, 24 hours prior to transfection. The CHO-K1 cells were seeded in 5 ml MEM alpha medium with ribonucleosides and deoxyribonucleosides and supplemented with 1× L-glutamine and 10% v/v foetal bovine serum (complete medium). The cells were grown at 37° C. in 5% CO2 in a humidified atmosphere.
For transfection, 5 ug DNA (luciferase control plasmid) was incubated with the gemini compounds in water (final volume 400 μl). The peptide-based gemini compounds were made up at 1 mg ml^−1 in tissue culture grade water and then diluted to the appropriate concentration to a total volume of 200 ul. Following a 30 minute room temperature incubation, 2.6 ml OPTI-MEM® medium was added and the solution placed on the cells. Following an overnight incubation at 37° C., the transfection solution was replaced with complete medium and the cells incubated at 37° C. 24 hours post transfection the cells were detached from the flask and seeded into 96-well plates at a density of 0.5×10^5 cells per well and incubated for a further 24 hours at 37° C. Luciferase reporter gene assays were performed according to the manufacturers instructions (Roche Diagnostics, Mannheim, Germany) approximately 48 hours post transfection. The plates were left for a 15 minutes adaption period in the dark before counting for 60 seconds in a TopCount NXT counter (Canberra Packard). An average of eight wells were counted per transfection.
Control transfections were set up with no DNA, an anionic gemini compound and the commercially available reagent LipofectAmine PLUS™.

CHO-K1 cells [2] = assay: Transfection of luciferase plasmid into CHO-K1 cells with gemini compounds in combination with supplements (DOPE, PLUS)
Protocol: The transfection ability of the gemini compounds could be further enhanced by the addition of a neutral carrier, for example, dioleyl phosphatidylethanolamine (DOPE) (Farhood, H., et al (1985) Biochim. Biophys. Acta 1235 289) or a complexing reagent, for example, PLUS compound (Life Technologies Inc.). […] Transfection mediated by compound 55 with DOPE in a 2:1 ratio and the addition of 11.6 ul of PLUS compound lead to a mean count of 6.5×10^5 cps representing a 12-fold increase of luciferase activity in comparison to compound 55 alone. Incubation of the PLUS compound with the DNA and combination with compound 55 alone also lead to a 4-fold increase.

[3] = compound 55 with DOPE 2:1 plus 11.6 ul PLUS compound

Compound | Luciferase activity count, control transfection (HEK293 cells; CaPO4 transfection) | Efficiency in facilitating transfection of the luciferase plasmid (CHO-K1 cells [1]) | Luciferase activity, mean count at most effective (peak) concentration (CHO-K1 cells [1]) | Concentration of peak transfection efficiency (most effective concentration) (CHO-K1 cells [1]) [µM] | Efficiency in facilitating transfection of the luciferase plasmid (HEK293 cells) | Luciferase activity, mean count at most effective (peak) concentration (HEK293 cells) | Concentration of peak transfection efficiency (most effective concentration) (HEK293 cells) [µg/mL] | Increase of luciferase activity (CHO-K1 cells [2]; PLUS compound incubated with the DNA, combined with compound 55 alone (no DOPE)) [fold] | Increase of luciferase activity (CHO-K1 cells [2]; compound 55 and DOPE at 2:1 ratio) [fold] | Increase of luciferase activity in comparison to compound 55 alone (CHO-K1 cells [2]; [3]) [fold] | Luciferase activity, mean count (CHO-K1 cells [2]; [3])
CaPO4 [reference compound] | about 2,000 cps |  |  |  |  |  |  |  |  |  | 
CCCCCCCCCCCCNC(=O)C(CO)NC(=O)C(CSCCSCC(NC(=O)C(CCCCNC(=O)C(N)CCCCN)NC(=O)C(N)CCCCN)C(=O)NC(CO)C(=O)NCCCCCCCCCCCC)NC(=O)C(CCCCNC(=O)C(N)CCCCN)NC(=O)C(N)CCCCN.Cl.Cl.Cl.Cl.Cl.Cl.Cl.Cl (centres unmarked) [Compound 56] (I: H-KK(Lys)CS-{NH(CH2)11CH3} / II: H-KK(Lys)CS-{NH(CH2)11CH3}; linker I:3-II:3 via CH2CH2; configuration not given here) |  | very efficient agents | about 1.9×10^5 cps | 40 | very efficient agents | about 50,000 cps | 200 |  |  |  | 
CCCCCCCCCCCCCNC(=O)C(CO)NC(=O)C(CSCCSCC(NC(=O)C(N)CCCCNC(=O)C(N)CCCCN)C(=O)NC(CO)C(=O)NCCCCCCCCCCCC)NC(=O)C(N)CCCCNC(=O)C(N)CCCCN.Cl.Cl.Cl.Cl (centres unmarked) [Compound 55] |  | very efficient agents | about 2.4×10^5 cps | 30 | very efficient agents | about 45,000 cps | 300 | 4 | 9 | 12 | 6.5×10^5 cps
